Test results taken from patent publication US20230085307A1, “PYRIDAZINONE COMPOUND AND HERBICIDE” (NISSAN CHEMICAL CORPORATION, priority 2019, published 2023).

Key:
[1] = system: lambsquarters; experiment: Test Example 4: herbicidal effect by soil treatment (Table 19, symbol O); type: in vivo, lambsquarters (Chenopodium album)
Method in brief: (§1)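 Seeds were sown in sterilized diluvial soil and covered with about 1.5 cm of soil. An emulsion formulation diluted with water to a predetermined herbicide amount was sprayed evenly onto the soil surface. Plants grew in a greenhouse at 25° C. to 30° C., and the effect was scored three weeks after application using criteria from an earlier test.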

[2] = system: chickweed; experiment: Test Example 4: herbicidal effect by soil treatment (Table 19, symbol P); type: in vivo, common chickweed (Stellaria media)
Method in brief: as §1

[3] = system: blackgrass; experiment: Test Example 5: herbicidal effect by foliage application, plastic box (Table 20, symbol J); type: in vivo, blackgrass (Alopecurus myosuroides); settings: foliage application, three weeks after application
Method in brief: (§2)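 Plants sown in sterilized diluvial soil and grown 14 days in a greenhouse at 25° C to 30° C, then sprayed on the foliage with the compound's emulsion diluted in water to a predetermined herbicide amount. Injury to weeds and crops scored three weeks after application on a visual rating scale.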

[4] = system: wild oat; experiment: Test Example 4: herbicidal effect by soil treatment (Table 19, symbol I); type: in vivo, wild oat (Avena fatua)
Method in brief: as §1

[5] = system: blackgrass; experiment: Test Example 4: herbicidal effect by soil treatment (Table 19, symbol J); type: in vivo, blackgrass (Alopecurus myosuroides)
Method in brief: as §1

[6] = system: barnyard grass; experiment: Test Example 4: herbicidal effect by soil treatment (Table 19, symbol H); type: in vivo, barnyard grass (Echinochloa crus-galli)
Method in brief: as §1

[7] = system: Japanese bulrush; experiment: Test Example 1: herbicidal activity, application before weed generation under submerged conditions (Table 16, symbol B); type: in vivo, Japanese bulrush (Schoenoplectus juncoides)
Method in brief: (§3)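 Alluvial soil was flooded to 4 cm depth, weed seeds were sown mixed and 2.5-leaf rice seedlings were transplanted. On sowing day, the compound's emulsion, diluted in water to a set dose, was applied to the water surface. Plants grew at 25–30 °C and were scored 0–5 after three weeks.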

[8] = system: southern crabgrass; experiment: Test Example 4: herbicidal effect by soil treatment (Table 19, symbol F); type: in vivo, southern crabgrass (Digitaria ciliaris)
Method in brief: as §1

[9] = system: persian speedwell; experiment: Test Example 5: herbicidal effect by foliage application, plastic box (Table 20, symbol R); type: in vivo, Persian speedwell (Veronica persica); settings: foliage application, three weeks after application
Method in brief: as §2

[10] = system: southern crabgrass; experiment: Test Example 5: herbicidal effect by foliage application, plastic box (Table 20, symbol F); type: in vivo, southern crabgrass (Digitaria ciliaris); settings: foliage application, three weeks after application
Method in brief: as §2

[11] = system: Japanese bulrush; experiment: Test Example 2: herbicidal activity, application during weed generation under submerged conditions (Table 17, symbol B); type: in vivo, Japanese bulrush (Schoenoplectus juncoides); settings: application during weed generation, submerged conditions
Method in brief: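 Effect on each weed is rated three weeks post-treatment, using the same scoring criteria as the preceding test. Plants grow from mixed-sown seed in flooded alluvial soil (4 cm water) at 25° C. to 30° C., and are treated at one to two leaves with diluted emulsion dropped onto the water.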

[12] = system: Italian ryegrass; experiment: Test Example 4: herbicidal effect by soil treatment (Table 19, symbol K); type: in vivo, Italian ryegrass (Lolium multiflorum)
Method in brief: as §1

[13] = system: oval-leafed pondweed; experiment: Test Example 1: herbicidal activity, application before weed generation under submerged conditions (Table 16, symbol C); type: in vivo, oval-leafed pondweed (Monochoria vaginalis)
Method in brief: as §3

[14] = system: persian speedwell; experiment: Test Example 4: herbicidal effect by soil treatment (Table 19, symbol R); type: in vivo, Persian speedwell (Veronica persica)
Method in brief: as §1

[15] = system: Italian ryegrass; experiment: Test Example 5: herbicidal effect by foliage application, plastic box (Table 20, symbol K); type: in vivo, Italian ryegrass (Lolium multiflorum); settings: foliage application, three weeks after application
Method in brief: as §2

[16] = system: rice flat sedge; experiment: Test Example 3: herbicidal effect by foliage application, Wagner pot (Table 18, symbol E); type: in vivo, rice flat sedge (Cyperus iria)
Method in brief: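 Plants were sown in alluvial soil held under 0.1–0.5 cm standing water and grown 14 days in a greenhouse at 25–30 °C. An emulsifiable formulation, water-diluted to the set dose, was then sprayed onto the foliage, and effects were scored three weeks later using previously defined criteria.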

[17] = amount of applied herbicide 390 g/ha
[18] = amount of applied herbicide 320 g/ha

Compound | O: lambsquarters, herbicidal effect grade [1, 18] | P: chickweed, herbicidal effect grade [2, 18] | herbicidal effect on blackgrass (J) ([3]; 320 g/ha) | I: wild oat, herbicidal effect grade [4, 18] | J: blackgrass, herbicidal effect grade [5, 18] | H: barnyard grass, herbicidal effect grade [6, 18] | Herbicidal effect, B: Japanese bulrush [7, 18] | F: southern crabgrass, herbicidal effect grade [8, 18] | herbicidal effect on persian speedwell (R) ([9]; 320 g/ha) | herbicidal effect on southern crabgrass (F) ([10]; 320 g/ha) | herbicidal effect rating, B: Japanese bulrush ([11]; AAH 320 g/ha) | K: Italian ryegrass, herbicidal effect grade [12, 18] | Herbicidal effect, C: oval-leafed pondweed [13, 18] | R: persian speedwell, herbicidal effect grade [14, 18] | herbicidal effect on Italian ryegrass (K) ([15]; 320 g/ha) | Herbicidal effect on E (rice flat sedge), foliage application [16, 18] | other results
CCCC(=O)Oc1c(C)nn(C)c(=O)c1-c1c(-c2ccc(F)cc2)oc2ccc(C)cc12 [9-005] |  |  |  |  |  |  |  |  |  |  |  |  |  |  |  |  | O: lambsquarters, herbicidal effect grade [1, 17]: 3 (Herbicidal rate of 40% or more and less than 70%); P: chickweed, herbicidal effect grade [2, 17]: 5 (Herbicidal rate of 90% or more (almost completely withered)); herbicidal effect on blackgrass (J) ([3]; 390 g/ha): 0 (Herbicidal rate of 5% or less (almost no effect)); I: wild oat, herbicidal effect grade [4, 17]: 0 (Herbicidal rate of 5% or less (almost no effect)); J: blackgrass, herbicidal effect grade [5, 17]: 0 (Herbicidal rate of 5% or less (almost no effect)); H: barnyard grass, herbicidal effect grade [6, 17]: 0 (Herbicidal rate of 5% or less (almost no effect)); Herbicidal effect, B: Japanese bulrush [7, 17]: 4 (Herbicidal rate of 70% or more and less than 90%); F: southern crabgrass, herbicidal effect grade [8, 17]: 0 (Herbicidal rate of 5% or less (almost no effect)); herbicidal effect on persian speedwell (R) ([9]; 390 g/ha): 5 (Herbicidal rate of 90% or more (almost completely withered)); herbicidal effect on southern crabgrass (F) ([10]; 390 g/ha): 0 (Herbicidal rate of 5% or less (almost no effect)); herbicidal effect rating, B: Japanese bulrush ([11]; AAH 390 g/ha): 1 (Herbicidal rate of 5% or more and less than 20%); K: Italian ryegrass, herbicidal effect grade [12, 17]: 0 (Herbicidal rate of 5% or less (almost no effect)); Herbicidal effect, C: oval-leafed pondweed [13, 17]: 3 (Herbicidal rate of 40% or more and less than 70%); R: persian speedwell, herbicidal effect grade [14, 17]: 3 (Herbicidal rate of 40% or more and less than 70%); herbicidal effect on Italian ryegrass (K) ([15]; 390 g/ha): 4 (Herbicidal rate of 70% or more and less than 90%); Herbicidal effect on E (rice flat sedge), foliage application [16, 17]: 2 (Herbicidal rate of 20% or more and less than 40%)
COc1ccc(-c2oc3ccc(C)cc3c2-c2c(O)c(C)nn(C)c2=O)cc1 [9-007] | 4 (Herbicidal rate of 70% or more and less than 90%) | 4 (Herbicidal rate of 70% or more and less than 90%) | 4 (Herbicidal rate of 70% or more and less than 90%) | 1 (Herbicidal rate of 5% or more and less than 20%) | 4 (Herbicidal rate of 70% or more and less than 90%) | 3 (Herbicidal rate of 40% or more and less than 70%) | 5 (Herbicidal rate of 90% or more (almost completely withered)) | 5 (Herbicidal rate of 90% or more (almost completely withered)) | 5 (Herbicidal rate of 90% or more (almost completely withered)) | 5 (Herbicidal rate of 90% or more (almost completely withered)) | 5 (Herbicidal rate of 90% or more (almost completely withered)) | 5 (Herbicidal rate of 90% or more (almost completely withered)) | 5 (Herbicidal rate of 90% or more (almost completely withered)) | 5 (Herbicidal rate of 90% or more (almost completely withered)) | 5 (Herbicidal rate of 90% or more (almost completely withered)) | 5 (Herbicidal rate of 90% or more (almost completely withered)) | 
CCCC(=O)Oc1c(C)nn(C)c(=O)c1-c1c(-c2ccc(OC)cc2)oc2ccc(C)cc12 [9-008] | 4 (Herbicidal rate of 70% or more and less than 90%) | 0 (Herbicidal rate of 5% or less (almost no effect)) | 1 (Herbicidal rate of 5% or more and less than 20%) | 0 (Herbicidal rate of 5% or less (almost no effect)) | 0 (Herbicidal rate of 5% or less (almost no effect)) | 3 (Herbicidal rate of 40% or more and less than 70%) | 5 (Herbicidal rate of 90% or more (almost completely withered)) | 3 (Herbicidal rate of 40% or more and less than 70%) | 5 (Herbicidal rate of 90% or more (almost completely withered)) | 3 (Herbicidal rate of 40% or more and less than 70%) | 5 (Herbicidal rate of 90% or more (almost completely withered)) | 4 (Herbicidal rate of 70% or more and less than 90%) | 5 (Herbicidal rate of 90% or more (almost completely withered)) | 4 (Herbicidal rate of 70% or more and less than 90%) | 5 (Herbicidal rate of 90% or more (almost completely withered)) | 5 (Herbicidal rate of 90% or more (almost completely withered)) | 
CCOc1ccc(-c2oc3ccc(F)cc3c2-c2c(O)c(C)nn(C)c2=O)cc1 [9-021] | 4 (Herbicidal rate of 70% or more and less than 90%) | 0 (Herbicidal rate of 5% or less (almost no effect)) | 1 (Herbicidal rate of 5% or more and less than 20%) | 0 (Herbicidal rate of 5% or less (almost no effect)) | 4 (Herbicidal rate of 70% or more and less than 90%) | 4 (Herbicidal rate of 70% or more and less than 90%) | 5 (Herbicidal rate of 90% or more (almost completely withered)) | 4 (Herbicidal rate of 70% or more and less than 90%) | 5 (Herbicidal rate of 90% or more (almost completely withered)) | 4 (Herbicidal rate of 70% or more and less than 90%) | 3 (Herbicidal rate of 40% or more and less than 70%) | 5 (Herbicidal rate of 90% or more (almost completely withered)) | 5 (Herbicidal rate of 90% or more (almost completely withered)) | 5 (Herbicidal rate of 90% or more (almost completely withered)) | 5 (Herbicidal rate of 90% or more (almost completely withered)) | 5 (Herbicidal rate of 90% or more (almost completely withered)) | 
